# Values quoted from earlier work, collected in patent EP3807270B1, “NOVEL HETEROARYL HETEROCYCLYL COMPOUNDS FOR THE TREATMENT OF AUTOIMMUNE DISEASE” (F. Hoffmann-La Roche AG, priority 2018, dated 2019).
# Biological target: T1, hTLR9 (Homo sapiens, UniProt Q9NR96)
# T1 sequence (Q9NR96 26-1032): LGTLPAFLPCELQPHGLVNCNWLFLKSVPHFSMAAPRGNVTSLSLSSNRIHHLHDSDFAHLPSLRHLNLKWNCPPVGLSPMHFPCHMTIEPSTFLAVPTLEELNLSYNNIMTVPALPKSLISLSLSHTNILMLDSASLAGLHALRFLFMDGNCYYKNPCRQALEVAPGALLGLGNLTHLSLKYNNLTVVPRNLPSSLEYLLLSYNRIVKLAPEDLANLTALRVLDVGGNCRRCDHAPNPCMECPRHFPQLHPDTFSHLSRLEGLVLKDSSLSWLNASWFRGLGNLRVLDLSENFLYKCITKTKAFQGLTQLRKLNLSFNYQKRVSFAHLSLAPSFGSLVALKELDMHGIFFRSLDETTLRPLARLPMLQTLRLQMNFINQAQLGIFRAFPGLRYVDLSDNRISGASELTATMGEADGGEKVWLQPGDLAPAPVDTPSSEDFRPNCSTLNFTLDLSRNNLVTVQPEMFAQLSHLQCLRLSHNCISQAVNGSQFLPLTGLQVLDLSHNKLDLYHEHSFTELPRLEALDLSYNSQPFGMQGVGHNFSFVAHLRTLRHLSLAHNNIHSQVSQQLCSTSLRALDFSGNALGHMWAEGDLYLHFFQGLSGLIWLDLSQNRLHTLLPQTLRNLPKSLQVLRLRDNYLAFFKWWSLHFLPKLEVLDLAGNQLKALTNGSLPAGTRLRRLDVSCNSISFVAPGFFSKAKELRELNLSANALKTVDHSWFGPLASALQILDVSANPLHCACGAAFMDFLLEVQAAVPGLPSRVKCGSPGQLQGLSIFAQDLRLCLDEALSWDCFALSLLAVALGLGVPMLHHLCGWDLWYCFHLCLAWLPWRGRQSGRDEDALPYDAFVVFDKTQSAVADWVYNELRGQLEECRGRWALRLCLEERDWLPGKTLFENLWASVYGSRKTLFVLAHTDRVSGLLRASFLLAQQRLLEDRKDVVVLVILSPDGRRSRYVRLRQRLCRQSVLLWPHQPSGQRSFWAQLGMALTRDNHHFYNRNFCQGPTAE
# Design: host or cells: HEK
# Details: data disclosed in US20150105370; read-out: HEK/hTLR9 IC50; cited from earlier work
structure (smiles),measurement,value
"C[C@@H]1CN(c2ccc(C#N)c3ncccc23)C[C@H](CN2CCN(c3ccncc3)CC2)O1 [ER-888286, reference compound]",IC50,> 2 µM
